On the set-up of data set [1]: species or system human. The note with it: in vivo. The source says: The SAD/MAD study was a phase 1, double-blind, placebo-controlled, multicohort trial. Part 1 used a SAD design according to which subjects received a single i.v. dose of SPR741. Part 2 used a MAD design in which subjects received multiple daily i.v. doses of SPR741 over a period of 14 days. The objective was to assess the safety/tolerability and PK of single and multiple ascending doses of SPR741. In the SAD phase, healthy volunteers were screened within 28 days prior to dosing. Subjects were admitted to the clinical facility on day −1 for up to 3 days. A single dose of SPR741 (or placebo) was administered on day 1. Following completion of all safety assessments and sampling for PK analyses, subjects were discharged on day 2. A follow-up visit occurred 5 to 7 days after day 1 dosing. In the MAD phase, all subjects were admitted to the clinical facility on day −1. Dosing commenced on the morning of day 1. Three doses were administered daily at approximately 8 (±0.5)-h intervals for a total of 14 consecutive days. The last dose was administered on the morning of day 14. Blood and urine samples were collected for assessment of PK parameters. Subjects were discharged on day 16 following completion of all PK sample collection and safety assessments, and a follow-up visit occurred 5 to 7 days after the last dose. In the SAD phase, subjects were randomized to one of eight cohorts that received doses of 5, 15, 50, 100, 200, 400, 600 or 800 mg of SPR741. Within each cohort, two subjects received placebo, and six received SPR741. In cohort 1, two subjects (sentinels) were dosed with SPR741 or placebo 48 h prior to dosing of the remaining subjects. The remaining six subjects were dosed only after no safety concerns were identified in the sentinel subjects. After each dose cohort had completed administration of study drug and evaluation, a Safety Monitoring Group reviewed blinded cumulative safety data (including day 5 to day 7 follow-up data) to confirm the safety and tolerability of SPR741. For both studies, safety assessments included clinical laboratory testing (hematology, coagulation, serum chemistry, renal chemistry, and urinalysis), vital signs (blood pressure, heart rate, body temperature, and respiratory rate), physical examination, and triplicate 12-lead ECGs. […] Adverse events were recorded at each study visit.

A short description of another data set: clinical. The note with it: human, in vivo, iv. The source says:
The SAD/MAD study was a phase 1, double-blind, placebo-controlled, multicohort trial. Part 1 used a SAD design according to which subjects received a single i.v. dose of SPR741. Part 2 used a MAD design in which subjects received multiple daily i.v. doses of SPR741 over a period of 14 days. The objective was to assess the safety/tolerability and PK of single and multiple ascending doses of SPR741. In the SAD phase, healthy volunteers were screened within 28 days prior to dosing. Subjects were admitted to the clinical facility on day −1 for up to 3 days. A single dose of SPR741 (or placebo) was administered on day 1. Following completion of all safety assessments and sampling for PK analyses, subjects were discharged on day 2. A follow-up visit occurred 5 to 7 days after day 1 dosing. In the MAD phase, all subjects were admitted to the clinical facility on day −1. Dosing commenced on the morning of day 1. Three doses were administered daily at approximately 8 (±0.5)-h intervals for a total of 14 consecutive days. The last dose was administered on the morning of day 14. Blood and urine samples were collected for assessment of PK parameters. Subjects were discharged on day 16 following completion of all PK sample collection and safety assessments, and a follow-up visit occurred 5 to 7 days after the last dose. The MAD phase of the study began after safety and tolerability were confirmed in cohort 5, and the appropriate dose level was established. Two subjects received placebo, and six subjects received SPR741 doses of 50, 150, 400 or 600 mg q8h for 14 days. In the first cohort of the MAD phase (50 mg q8h), two subjects (sentinels) began dosing with SPR741 or placebo 72 h prior to dosing of the remaining subjects in this cohort. The remaining six subjects were dosed only after no safety concerns were identified by the Safety Monitoring Group at 72 h. […]

Peptide text beside a SMILES is read from it.

With `CC(=O)N[C@H](C(=O)N[C@H](CO)C(=O)N[C@H]1CCNC(=O)[C@H]([C@@H](C)O)NC(=O)[C@H](CCN)NC(=O)[C@H](CCN)NC(=O)[C@H](CC(C)C)NC(=O)[C@@H](Cc2ccccc2)NC(=O)[C@H](CCN)NC1=O)[C@@H](C)O` [SPR741] (HELM PEPTIDE1{[ac].T.[dS].[Dab].[Dab].[dF].L.[Dab].[Dab].T}$PEPTIDE1,PEPTIDE1,4:R3-10:R2$$$V2.0), in data set [1], the “TEAE classified as a renal or urinary disorder” value is on record as “No subjects”, the “abnormal serum creatinine value” is on record as “no subject”, the “headache: No. (%) of subjects” value was 4 (8%) and the “severe TEAE or serious adverse event” value was “No subject”. Moreover, the time to peak (Tmax) in “clinical” is 1 h. Further, in the data set “clinical” (CL), the clearance is 89 mL/min. For the same compound, the half-life in the data set “clinical” (mean (apparent terminal elimination) half-life, day 1) was 132 min.
